Test systems include CAKI-1; CCRF-CEM; HCT-116; HCT-15; K562; MOLT-4; Malme-3M; NCI-H226; NCI-H460; SK-MEL-28; SK-MEL-2; SK-OV-3; SNB-75; SR; TK-10; U-251; UACC-257; UACC-62; A498.
Holding throughout (assay): NCI tumour cell line growth inhibition, 48 h

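The compound was tested at five concentrations on cells cultured in 96-well plates, with a 48-hour exposure period. GI50: concentration for 50% inhibition of growth.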 Calls of active or inactive are those of the source. Rule as the data show it: active = GI50 up to about 1.1 µM and inactive = higher.

In the case of `COc1cc(C=C2C(=O)NC(=O)NC2=O)cc(OC)c1OC`, the GI50 in the test with CAKI-1 was > 100 µM (inactive); in the test on CCRF-CEM, > 100 µM (inactive); in the test with HCT-116 it was > 100 µM (inactive); in the test with HCT-15, greater than 100 µM; with K562 it was > 100 µM (inactive); with MOLT-4 it was > 100 µM (inactive). The GI50 with Malme-3M, in the test with NCI-H226, in the test with NCI-H460, in the test with SK-MEL-28, with SK-MEL-2 and with SK-OV-3 was > 100 µM (inactive) each time. Moreover, the GI50 with SNB-75 was 80.2 µM (inactive); in the test on SR it was > 100 µM (inactive); in the test on TK-10, > 100 µM (inactive); in the test with U-251, > 100 µM (inactive); in the test with UACC-257, > 100 µM (inactive); in the test on UACC-62 it was > 100 µM (inactive).

With `CNC(=O)CN(CC(N)=O)C(N)=O`, the GI50 was > 100 µM (inactive) in the test with A498; > 100 µM (inactive) with CAKI-1; > 100 µM (inactive) in the test on CCRF-CEM; greater than 100 µM in the test on HCT-15; > 100 µM (inactive) in the test on K562; > 100 µM (inactive) in the test on MOLT-4. Besides, the GI50 in the test on Malme-3M, in the test on NCI-H226, in the test on NCI-H460, in the test with SK-MEL-28, with SK-MEL-2 and with SK-OV-3 was > 100 µM (inactive) in each case. For the same compound, the GI50 with SNB-75 was 77.3 µM (inactive); with SR, > 100 µM (inactive); in the test with TK-10, > 100 µM (inactive); in the test on U-251, > 100 µM (inactive); with UACC-62 it was > 100 µM (inactive).

For `CCOC(=O)C(C(CC(=O)OC)NC(=O)OCc1ccccc1)C1(C)OCCO1` (stereo not given), the GI50 in the test on A498 was > 100 µM (inactive); in the test with CCRF-CEM it was > 100 µM (inactive); with HCT-116, > 100 µM (inactive); in the test with HCT-15, greater than 100 µM; in the test on K562, > 100 µM (inactive); in the test on MOLT-4, > 100 µM (inactive). For the same compound, the GI50 is > 100 µM (inactive) with Malme-3M; > 100 µM (inactive) in the test with NCI-H226; > 100 µM (inactive) in the test on NCI-H460; > 100 µM (inactive) in the test with SK-MEL-28; > 100 µM (inactive) in the test with SK-MEL-2; 41.1 µM (inactive) in the test with SNB-75. The GI50 with SR, in the test with TK-10, in the test on U-251, in the test with UACC-257 and in the test on UACC-62 was > 100 µM (inactive) each time.

Turning to `Nc1n/c(=N\c2ccccc2)ss1`, the GI50 is > 100 µM (inactive) with A498; > 100 µM (inactive) in the test on CAKI-1; > 100 µM (inactive) in the test with HCT-116; 78 µM (inactive) in the test on K562; > 100 µM (inactive) with MOLT-4; > 100 µM (inactive) in the test with Malme-3M. Also, the GI50 in the test with NCI-H226, with NCI-H460, in the test on SK-MEL-28, in the test on SK-OV-3, in the test on SNB-75 and in the test with SR was > 100 µM (inactive) each time. In addition, the GI50 with TK-10, in the test with U-251, in the test on UACC-257 and with UACC-62 was > 100 µM (inactive) each time.

Consider `CCOC(=O)CC(=O)Sc1ccccc1`, for which the GI50 was 15.8 µM (inactive) in the test with A498; 3.82 µM (inactive) in the test with CCRF-CEM; 12.6 µM (inactive) in the test with HCT-116; 19.4 µM (inactive) with K562; 11 µM (inactive) in the test with MOLT-4; 25.6 µM (inactive) in the test with Malme-3M. In addition, the GI50 in the test on NCI-H226 is 27.2 µM (inactive); in the test on NCI-H460, 24.7 µM (inactive); in the test on SK-MEL-28 it was 14.6 µM (inactive); in the test on SK-MEL-2, 25.4 µM (inactive); in the test with SK-OV-3 it was 24.5 µM (inactive); in the test on SR, 14.1 µM (inactive). For the same compound, the GI50 was 38.3 µM (inactive) in the test with TK-10, 12.4 µM (inactive) with U-251, 28.1 µM (inactive) in the test on UACC-257 and 16 µM (inactive) in the test with UACC-62.

Regarding `O=C1C2c3[nH]c4ccccc4c3C3CCCCCCC3C2C(=O)N1c1ccccc1` (stereo not given), the GI50 is 15.5 µM (inactive) in the test with A498; 10.2 µM (inactive) with CCRF-CEM; 22.3 µM in the test on HCT-15; 4.52 µM (inactive) in the test on K562; > 10 µM (inactive) in the test on MOLT-4; 3.33 µM (inactive) in the test on Malme-3M. For the same compound, the GI50 in the test with NCI-H460 is 4.91 µM (inactive); with SK-MEL-28 it was 14.6 µM (inactive); with SK-OV-3 it was 2.44 µM (inactive); in the test on SNB-75, 2.23 µM (inactive); in the test on SR, 14.9 µM (inactive); in the test with TK-10, 12 µM (inactive). The values for the GI50 in the test with U-251 and in the test with UACC-62 were 4.46 µM (inactive) and 32.9 µM (inactive), respectively.

For `Cc1ccc(/C=N/NS(=O)(=O)c2ccccc2)cc1C`, the GI50 with A498 is 59.4 µM (inactive); with CAKI-1 it was 68.7 µM (inactive); with CCRF-CEM, > 100 µM (inactive); in the test on HCT-116 it was 76 µM (inactive); in the test on HCT-15, greater than 100 µM; in the test with K562, > 100 µM (inactive). In addition, the GI50 in the test with MOLT-4, in the test on Malme-3M, in the test with NCI-H226, with NCI-H460, with SK-MEL-28 and in the test on SK-MEL-2 was > 100 µM (inactive) in each case. Also, the GI50 was > 100 µM (inactive) with SK-OV-3; > 100 µM (inactive) with SNB-75; 86.7 µM (inactive) in the test on SR; > 100 µM (inactive) in the test on TK-10; > 100 µM (inactive) in the test with U-251; > 100 µM (inactive) with UACC-257. Moreover, the GI50 in the test on UACC-62 is 98.9 µM (inactive).

For `O=C1C2C=CC(n3[nH]c(=O)n(Cc4ccccc4)c3=O)CC2C(=O)N1c1ccc(Br)cc1` (stereo not given), the GI50 in the test on A498 was 56.8 µM (inactive); in the test on CAKI-1, > 100 µM (inactive); with CCRF-CEM it was > 100 µM (inactive); in the test on HCT-116, > 100 µM (inactive); with HCT-15, greater than 100 µM; in the test with K562, > 100 µM (inactive). The GI50 with MOLT-4, in the test on Malme-3M, with NCI-H226, in the test with NCI-H460, in the test on SK-MEL-28 and with SK-MEL-2 was > 100 µM (inactive) each time. Further, the GI50 was > 100 µM (inactive) with SK-OV-3; 47.1 µM (inactive) in the test with SNB-75; > 100 µM (inactive) in the test on SR; > 100 µM (inactive) with TK-10; > 100 µM (inactive) with U-251; > 100 µM (inactive) in the test on UACC-257. The GI50 with UACC-62 is > 100 µM (inactive).

For the compound `CC(C)=C/C(CC(O)(C(F)(F)F)C(F)(F)F)=N\O`, the GI50 is 50.9 µM (inactive) in the test with A498; > 100 µM (inactive) with CCRF-CEM; > 100 µM (inactive) in the test with HCT-116; greater than 100 µM in the test on HCT-15; > 100 µM (inactive) with K562; > 100 µM (inactive) in the test with MOLT-4. The GI50 in the test with Malme-3M, with NCI-H226, with NCI-H460, in the test with SK-MEL-28, in the test on SK-OV-3 and with SNB-75 was > 100 µM (inactive) in each case. In addition, the GI50 in the test with SR, with TK-10, with U-251, in the test with UACC-257 and with UACC-62 was > 100 µM (inactive) each time.

In the case of `C=C(C)CCC1C=[N+]([O-])OC(C)(C)C1(C)C` (stereo not given), the GI50 with A498 was > 100 µM (inactive); in the test on CAKI-1, > 100 µM (inactive); in the test on CCRF-CEM, 33.3 µM (inactive); in the test on HCT-116, > 100 µM (inactive); in the test with HCT-15, 84.3 µM; with K562, > 100 µM (inactive). Further, the GI50 with MOLT-4, in the test with NCI-H226, in the test on NCI-H460, in the test on SK-OV-3, in the test with SNB-75 and with SR was > 100 µM (inactive) throughout. Besides, the GI50 with TK-10 was > 100 µM (inactive); in the test on U-251 it was > 100 µM (inactive); with UACC-257, > 100 µM (inactive); with UACC-62, 79.1 µM (inactive).

As for `O=C1C2CCC(C2)C12CC1(c3ccccc3)C(=O)c3ccccc3N1O2` (stereo not given), the GI50 in the test with A498 is > 100 µM (inactive); with CCRF-CEM, > 100 µM (inactive); in the test with HCT-116, > 100 µM (inactive); with HCT-15, greater than 100 µM; in the test on K562, > 100 µM (inactive); with MOLT-4 it was 42.6 µM (inactive). Further, the GI50 in the test on Malme-3M was > 100 µM (inactive); in the test with NCI-H226, > 100 µM (inactive); with SK-MEL-28, > 100 µM (inactive); in the test with SK-OV-3, > 100 µM (inactive); in the test with SNB-75, > 100 µM (inactive); in the test on SR, 67.5 µM (inactive). Besides, the values for the GI50 with U-251, in the test on UACC-257 and with UACC-62 were > 100 µM (inactive), > 100 µM (inactive) and 91.8 µM (inactive), respectively.

For the compound `CC(=O)OC(C[C@H](C)[C@@H]1CC[C@]2(C)C3=CCC4C(C)(C)C(=O)CC[C@]4(C)C3CCC12C)C1OC1(C)C` (stereo not given in full), the GI50 in the test on A498 was 17.1 µM (inactive); in the test with CCRF-CEM it was 15.9 µM (inactive); in the test with HCT-116 it was 18.2 µM (inactive); in the test with HCT-15 it was 33 µM; with K562, 7.24 µM (inactive); in the test with MOLT-4, 24.5 µM (inactive). Besides, the GI50 in the test with Malme-3M is 25.1 µM (inactive); with NCI-H226, 13.6 µM (inactive); in the test with SK-MEL-28, 27.3 µM (inactive); in the test with SK-MEL-2, 45.1 µM (inactive); with SK-OV-3, 13 µM (inactive); in the test with SR it was > 10 µM (inactive). Moreover, the GI50 in the test with TK-10 is 19.1 µM (inactive); with U-251, 21.9 µM (inactive); with UACC-257, 20.3 µM (inactive); with UACC-62 it was 23.4 µM (inactive).

The record behind these values is ChEMBL document CHEMBL1201862, “PubChem BioAssay data set” (2004).
